Reference: patent US5436229A, “Bisulfite adducts of arginine aldehydes” (Eli Lilly and Company, priority 1994, dated 1995)

Columns and labels:
Assay type in all cases: biochemical
human thrombin = human thrombin (Homo sapiens, UniProt P00734); test: Thrombin amidase inhibition (Kass), chromogenic substrate
Protocol: The assay is carried out by mixing 50 μl buffer (0.03M Tris, 0.15M NaCl, pH 7.4) with 25 μl of human thrombin solution (purified human thrombin, Enzyme Research Laboratories, South Bend, Ind., at 8 NIH units/ml) and 25 μl of test compound in a solvent (50% aqueous methanol (v:v)). Then 150 μl of an aqueous solution of the chromogenic substate (at 0.25 mg/ml) are added and the rates of hydrolysis of the substrate are measured by monitoring the reactions at 405 nm for the release of p-nitroaniline. Standard curves are constructed by plotting free thrombin concentration against hydrolysis rate. […] The amount of free inhibitor in each assay is calculated by subtracting the number of moles of bound thrombin from the number of moles of added inhibitor (test compound).
The Kass value is the hypothetical equilibrium constant for the reaction between thrombin and the test compound (I) . [formula]
Kass is calculated for a range of concentrations of test compounds and the mean value reported in units of liter per mole.

factor Xa = biological target: T1, factor Xa (Homo sapiens, UniProt P00742); test: Serine protease inhibition (Kass), factor Xa
T1 construct: Human factors X, Xa, IXa, XIa, and XIIa are purchased from Enzyme Research Laboratories; purchased Enzyme Research Laboratories, South Bend, Ind
T1 sequence (P00742 235-488 limits assumed): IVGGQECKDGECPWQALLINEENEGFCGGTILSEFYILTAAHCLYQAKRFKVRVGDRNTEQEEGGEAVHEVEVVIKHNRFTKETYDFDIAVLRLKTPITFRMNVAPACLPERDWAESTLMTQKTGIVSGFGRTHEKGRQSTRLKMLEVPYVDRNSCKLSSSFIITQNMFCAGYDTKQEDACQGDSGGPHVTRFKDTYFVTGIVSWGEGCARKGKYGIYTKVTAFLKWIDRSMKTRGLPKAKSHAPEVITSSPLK
T1 sequence (P00742 41-179 partner limits assumed): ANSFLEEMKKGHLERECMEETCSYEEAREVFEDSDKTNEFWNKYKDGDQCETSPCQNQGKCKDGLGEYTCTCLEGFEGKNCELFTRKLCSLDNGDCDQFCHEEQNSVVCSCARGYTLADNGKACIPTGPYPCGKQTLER
Protocol: (§1) By substantially following the procedures described above for human thrombin, and using other human blood coagulation system serine proteases and using fibrinolytic system serine proteases, with the appropriate chromogenic substrates, identified below, the selectivity of the compounds of the present invention with respect to the coagulation factor serine proteases and to the fibronolytic serine proteases are evaluated as well as their substantial lack of interference with human plasma clot fibrinolysis.
(§2) Human factors X, Xa, IXa, XIa, and XIIa are purchased from Enzyme Research Laboratories, South Bend, Ind.; human urokinase from Leo Pharmaceuticals, Denmark; and recombinant activated Protein C (aPC) is prepared at Eli Lilly and Co. substantially according to U.S. Pat. No. 4,981,952 incorporated by reference herein in its entirety. Chromogenic substrates: N-Benzoyl-Ile-Glu-Gly-Arg-p-nitroanilide (for factor Xa); N-Cbz-D-Arg-Gly-Arg-p-nitroanilide (for factor IXa assay as the factor Xa substrate); Pyroglutamyl-Pro-Arg-p-nitroanilide (for Factor XIa and for aPC); H-D-Pro-Phe-Arg-p-nitroanilide (for factor XIIa); and Pyroglutamyl-Gly-Arg-p-nitroanilide (for urokinase); are purchased from KabiVitrum, Stockholm, Sweden, or from Midwest Biotech, Fishers, Ind. Bovine trypsin is purchased from Worthington Biochemicals, Freehold, N.J., and human plasma kallikrein from Kabi Vitrum, Stockholm, Sweden. Chromogenic substrate H-D-Pro-Phe-Arg-p-nitroanilide for plasma kallikrein is purchased from Kabi Vitrum, Stockholm, Sweden. N-Benzoyl-Phe-Val-Arg-p-nitroanilide, the substrate for human thrombin and for trypsin, is synthesized according to procedures described above for the compounds of the present invention, using known methods of peptide coupling from commercially available reactants, or purchaed from Midwest Biotech, Fishers, Ind.

Bovine trypsin = biological target: T2, Bovine trypsin (Bos taurus, UniProt P00760); test: Serine protease inhibition (Kass), trypsin
T2 construct: Bovine trypsin is purchased from Worthington Biochemicals; purchased Worthington Biochemicals, Freehold, N.J
T2 sequence (P00760 24-246): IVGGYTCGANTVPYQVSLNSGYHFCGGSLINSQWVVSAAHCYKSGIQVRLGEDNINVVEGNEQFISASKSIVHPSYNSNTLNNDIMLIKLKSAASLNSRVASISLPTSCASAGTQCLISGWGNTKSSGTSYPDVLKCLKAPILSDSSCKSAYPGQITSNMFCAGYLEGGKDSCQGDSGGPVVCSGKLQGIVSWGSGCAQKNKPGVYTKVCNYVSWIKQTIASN
Protocol: as §1, §2

Human plasmin = biological target: T3, Human plasmin (Homo sapiens, UniProt P00747); test: Serine protease inhibition (Kass), plasmin
T3 construct: Human plasmin is purchased from Boehringer Mannheim; purchased Boehringer Mannheim, Indianapolis, Ind
T3 sequence (P00747 581-810 limits assumed): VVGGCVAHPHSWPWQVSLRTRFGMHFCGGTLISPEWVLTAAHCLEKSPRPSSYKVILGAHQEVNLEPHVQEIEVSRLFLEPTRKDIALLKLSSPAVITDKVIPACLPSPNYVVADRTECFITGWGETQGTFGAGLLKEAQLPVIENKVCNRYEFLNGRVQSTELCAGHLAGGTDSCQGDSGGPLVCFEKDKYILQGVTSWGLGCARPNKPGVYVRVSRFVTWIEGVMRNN
T3 sequence (P00747 97-580 partner limits assumed): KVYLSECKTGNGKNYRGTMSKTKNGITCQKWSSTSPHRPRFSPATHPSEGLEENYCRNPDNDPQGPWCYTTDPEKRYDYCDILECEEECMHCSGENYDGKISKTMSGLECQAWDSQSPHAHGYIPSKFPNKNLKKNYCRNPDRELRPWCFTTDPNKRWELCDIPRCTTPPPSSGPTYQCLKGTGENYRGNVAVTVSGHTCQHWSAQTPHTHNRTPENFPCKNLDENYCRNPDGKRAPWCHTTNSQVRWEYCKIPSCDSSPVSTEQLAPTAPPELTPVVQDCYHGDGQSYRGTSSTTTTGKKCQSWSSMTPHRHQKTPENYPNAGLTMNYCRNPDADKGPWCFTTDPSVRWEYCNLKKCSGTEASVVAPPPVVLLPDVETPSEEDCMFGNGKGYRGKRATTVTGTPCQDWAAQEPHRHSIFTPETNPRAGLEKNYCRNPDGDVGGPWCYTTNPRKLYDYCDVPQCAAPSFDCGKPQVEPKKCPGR
Protocol: as §1
(§3) Human plasmin is purchased from Boehringer Mannheim, Indianapolis, Ind.; nt-PA is purchased as single chain activity reference from American Diagnostica, Greenwich, Conn.; modified-t-PA6 (mt-PA6) is prepared at Eli Lilly and Company by procedure known in the art (See, Burck, et al., J. Biol. Chem., 265, […] (1990). Plasmin chromogenic substrate H-D-Val-Leu-Lys-p-nitroanilide and tissue plasminogen activator (t-PA) substrate H-D-Ile-Pro-Arg-p-nitroanilide are purchased from Kabi Vitrum, Stockholm, Sweden.

[1] = biological target: T4, tissue plasminogen activator (t-PA) (Homo sapiens, UniProt P00750); test: Serine protease inhibition (Kass), t-PA
T4 construct: purchased American Diagnostica, Greenwich, Conn
T4 sequence (P00750 36-562): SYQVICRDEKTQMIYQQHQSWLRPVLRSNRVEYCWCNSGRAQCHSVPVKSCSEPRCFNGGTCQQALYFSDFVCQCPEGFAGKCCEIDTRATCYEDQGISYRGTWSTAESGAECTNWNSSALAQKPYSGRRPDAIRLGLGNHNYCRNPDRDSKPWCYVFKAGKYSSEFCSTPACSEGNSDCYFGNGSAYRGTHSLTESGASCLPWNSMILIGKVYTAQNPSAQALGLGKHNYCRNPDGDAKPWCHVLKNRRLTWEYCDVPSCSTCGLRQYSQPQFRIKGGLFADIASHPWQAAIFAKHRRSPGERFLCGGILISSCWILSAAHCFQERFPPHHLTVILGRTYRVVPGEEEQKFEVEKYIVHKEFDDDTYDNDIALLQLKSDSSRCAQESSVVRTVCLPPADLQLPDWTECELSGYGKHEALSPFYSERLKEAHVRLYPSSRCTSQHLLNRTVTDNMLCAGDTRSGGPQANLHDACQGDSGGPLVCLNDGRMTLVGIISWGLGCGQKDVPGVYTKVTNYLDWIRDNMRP
Protocol: as §1, §3

human plasma [2] = test: Human plasma anticoagulation, thrombin time (TT)
Protocol: (§4) Fibrinogen is prepared from in-date ACD human blood as the fraction I-2 according to previous procedures and specifications. Smith, Biochem. […] Coagulation reagents ACTIN, Thromboplastin, and Human plasma are from Baxter Healthcare Corp., Dade Division, Miami, Fla. Bovine thrombin from Parke-Davis (Detroit, Mich.) is used for coagulation assays in plasma. Coagulation assay procedures are as previously described. […] A CoAScreener coagulation instrument (American LABor, Inc.) is used for all coagulation assay measurements. […] The compounds of formula I are added to human or animal plasma over a wide range of concentrations to determine prolongation effects on the APTT, PT, and TT assays. Linear extrapolations are performed to estimate the concentrations required to double the clotting time for each assay.

human plasma [3] = test: Human plasma anticoagulation, activated partial thromboplastin time (APTT)
Protocol: as §4

human plasma [4] = test: Human plasma anticoagulation, prothrombin time (PT)
Protocol: as §4

Compound	Kass Human Thrombin (human thrombin) [L/mol × 10^6]	Kass Xa (factor Xa) [L/mol × 10^6]	Kass Trypsin (Bovine trypsin) [L/mol × 10^6]	Kass Plasmin (Human plasmin) [L/mol × 10^6]	Kass t-PA [1] [L/mol × 10^6]	2 × Clotting time TT (human plasma [2]) [ng/mL]	2 × Clotting time APTT (human plasma [3])	2 × Clotting time PT (human plasma [4])
C[C@@]1(C(=O)N[C@H](C=O)CCCNC(=N)N)CCCN1C(=O)[C@H](Cc1ccccc1)NS(C)(=O)=O.Cl [Example 44, N-methylsulfonylphenylalanyl(αmethyl)-L-prolinyl-L-arginine aldehyde hydrochloride]	2.1	0.033	1.4	0.031	0.0023	560	12,000 ng/mL	11,000 ng/mL
Cl.N=C(N)NCCC[C@@H](C=O)NC(=O)[C@@H]1CCCN1C(=O)[C@@H](Cc1ccccc1)NC(=O)C1CCCCC1 [Example 71, N-(cylohexoyl)-D-phenylalanyl-L-Prolinyl-L-Arginine Aldehyde Hydrochloride]	20	0.064	5.9	0.24	0.26	63	1,300 ng/mL	1,800 ng/mL
CCCC(Cc1ccccc1)(NC(=O)OCC)C(=O)N1CCC[C@H]1C(=O)N[C@H](C=O)CCCNC(=N)N.Cl (stereo partly drawn) [Example 38, N-ethoxycarbonylphenylalanyl(αn-propyl)-L-prolinyl-L-arginine aldehyde hydrochloride]	38	0.077	7.3	0.074	< 0.001	98	2,700 ng/mL	2,200 ng/mL
Cl.N=C(N)NCCC[C@@H](C=O)NC(=O)[C@@H]1CCCN1C(=O)[C@@H](Cc1ccccc1)NC(=O)Cc1ccccc1 [Example 70, N-(phenylacetyl)-D-phenylalanyl-L-Prolinyl-L-Arginine Aldehyde Hydrochloride]	29	0.10	14	0.54	0.37	64	1,100 ng/mL	2,000 ng/mL
Cl.Cl.Cn1c(C(=O)N[C@](C)(Cc2ccccc2)C(=O)N2CCC[C@H]2C(=O)N[C@H](C=O)CCCNC(=N)N)cc2ccccc21 [Example 30, N-(1-methylindolyl-2-carbonyl)-D-phenylalanyl(α-methyl)-L-prolinyl-L -arginine aldehyde dihydrochloride]	25	0.013	1.3	0.0083	0.0022	220	2,800 ng/mL	4,200 ng/mL
Cl.Cn1c(C(=O)N[C@@](C)(C(=O)N2CC[C@H]2C(=O)N[C@H](C=O)CCCNC(=N)N)c2ccccc2)cc2ccccc21 [Example 23, 1-methylindole-2-carbonyl-D-(α-methyl)phenylglycine-Azt-Arg-H hydrochloride]	79	0.06	29	0.55	0.02	59	1,800 ng/mL	1,980 ng/mL
CCS(=O)(=O)NC(C)(C(=O)N1CCC[C@H]1C(=O)N[C@H](C=O)CCCNC(=N)N)c1ccccc1.Cl (stereo partly drawn) [Example 41, N-ethylsulfonyl-(D,L)-phenylglycinyl(αmethyl)-L-prolinyl-L-arginine aldehyde hydrochloride]	430	0.49	42	1.2	0.023	52	1,200 ng/mL	2,100 ng/mL
CCS(=O)(=O)NC1(C(=O)N2CCC[C@H]2C(=O)N[C@H](C=O)CCCNC(=N)N)CCCCC1.Cl [Example 31, 1-(ethylsulfonylamino)cyclohexoyl-L-prolinyl-L-arginine aldehyde hydrochloride]	3.2	0.036	0.42	0.010	0.00034	300	12,000 ng/mL	11,000 ng/mL
CCOC(=O)N[C@H](CC1CCCCC1)C(=O)N1CCC[C@H]1C(=O)N[C@H](C=O)CCCNC(=N)N.Cl [Example 78, N-(ethoxycarbonyl)-D-cyclohexylalanyl-L-prolinyl-L-Arginine Aldehyde Hydrochloride]	360	8.1	140	26	0.75	48	410 ng/mL	890 ng/mL
CCCCC(Cc1ccccc1)(NC(=O)OCC)C(=O)N1CCC[C@H]1C(=O)N[C@H](C=O)CCCNC(=N)N (stereo partly drawn) [Example 40, N-ethoxycarbonylphenylalanyl(αn-butyl)-L-prolinyl-L-arginine aldehyde]	47	0.088	15	0.13	0.001	91	3,100 ng/mL	2,400 ng/mL
CCCN(CCC)S(=O)(=O)c1ccc(C(=O)N[C@H](Cc2ccccc2)C(=O)N2CCC[C@H]2C(=O)N[C@H](C=O)CCCNC(=N)N)cc1.Cl [Example 73, N-(4-di-n-propylaminosulfonylbenzoyl)-D-phenylalanyl-L-Prolinyl-L-Arginine Aldehyde Hydrochloride]	43	0.32	15	0.86	0.62	150	3,500 ng/mL	4,800 ng/mL
